In article PMC10046071 (Biomedicines, 2023):
Where “and” joins values, the source holds several entries; their conditions need not be identical. Identical values can stand only once. Each block holds one compound with its values, some of them ahead of it.

Tests used:
[1] = Stability of stock and working solutions and of extracted samples in the autosampler; format: physicochemical; conditions: for stock solution stability, value for accuracy: DMSO stock, 10 days at −80 °C, versus freshly made, CV 3.7%; for working solution stability, value for accuracy: methanol, 8 h at room temperature, with or without light, CV 6.5%
Text: However, in the present study it has been conducted to study the stability of the stock and working solutions, freeze–thaw stability and autosampler stability. For all stability studies, the analyte stability should fall within 85−115% of the nominal concentration and was not allowed to deviate more than ±15% from the nominal concentration of all the QCs studied, as indicated in the Guidelines for Bioanalytical Methods Validation.
On the other hand, the stability of the working solutions in methanol on each test day was evaluated after 8 h at room temperature with light and in the dark.
The stability in the autosampler of the sample after the extraction process was evaluated at room temperature in the range between 2 and 8 h.

[2] = 4 CML patients
[3] = cited from earlier work
[4] = in vitro, human plasma; cited from earlier work
[5] = tested on: cytochrome P450 (CYP) 3A4; conditions: cited from earlier work
[6] = 493 subjects with CML; cited from earlier work
[7] = no reference given; cited from earlier work
[8] = Therapeutic drug monitoring: steady-state plasma pharmacokinetics in patients with CML; conditions: for Tmax / Cmin / Cmax: steady state; for CL/F: apparent oral clearance
[9] = 17 patients, 300 mg twice-daily
[10] = co-administered with a high-fat meal
[11] = Patient 1, 200–300 mg twice-daily oral
[12] = Patient 2, 200–300 mg twice-daily oral
[13] = Patient 3, 200–300 mg twice-daily oral
[14] = Patient 4, 200–300 mg twice-daily oral

- stock solution stability, value for accuracy [1]: less than 1.5%
- degradation on the autosampler ([1]; extracted sample, up to 8 h, room temperature): < 8.3%
- working solution stability, value for accuracy [1]: lower than 15.1%
- Correlation of Cmin with Alkaline phosphatase (U/L) [2]: 0.7497
- Correlation of Cmin with Haemaglobin (g/dL) [2]: −0.0319
- Correlation of Cmin with Haematocrit (%) [2]: 0.0870
- Correlation of Cmin with Leukocytes (×10^3/µL) [2]: −0.9194
- Correlation of Cmin with Neutrophils (×10^3/µL) [2]: −0.0280
- Correlation of Cmin with Platelet (×10^3/µL) [2]: −0.6949
- Correlation of Cmin with Serum bilirrubin (mg/dL) [2]: −0.4013
- Correlation of Cmin with Serum creatinine (g/dL) [2]: −0.1897
- t1/2 ([8]; Mean (SD) of 4 patients): 78.1 (75.4) h
- Tmax ([8]; Mean (SD) of 4 patients): 2.3 (1.3) h
- Cmin ([8]; Mean (SD) of 4 patients, 200–300 mg twice-daily): 1193.5 ng/mL and 1193.5 (414.7) ng/mL
- CL/F ([8]; Patient 1): 2.8 L/h
- t1/2 ([8]; Patient 1, elimination half-life): 25.1 h
- Tmax ([8]; Patient 1): 1 h
- Cmax [8, 11]: 3491.4 ng/mL
- Cmin [8, 11]: 1633.9 ng/mL
- CL/F ([8]; Patient 2): 1.9 L/h
- t1/2 ([8]; Patient 2, elimination half-life): 69.3 h
- Tmax ([8]; Patient 2): 2 h
- Cmax [8, 12]: 1137.2 ng/mL
- Cmin [8, 12]: 768.9 ng/mL
- CL/F ([8]; Patient 3): 0.6 L/h
- t1/2 ([8]; Patient 3, elimination half-life): 187.4 h
- Tmax ([8]; Patient 3): 2 h
- Cmax [8, 13]: 1988.4 ng/mL
- Cmin [8, 13]: 1450.3 ng/mL
- CL/F ([8]; Patient 4): 5.7 L/h
- t1/2 ([8]; Patient 4, elimination half-life): 30.7 h
- Tmax ([8]; Patient 4): 4 h
- Cmax [8, 14]: 1103.5 ng/mL
- Cmin [8, 14]: 920.7 ng/mL
Compound: Cc1cn(-c2cc(NC(=O)c3ccc(C)c(Nc4nccc(-c5cccnc5)n4)c3)cc(C(F)(F)F)c2)cn1 [nilotinib, Nilotinib]
- Correlation of Cmin with ALT (U/L) [2]: −0.3552
- Correlation of Cmin with AST (U/L) [2]: −0.0833
- Cmin at a steady state ([3]; 300 mg twice-daily, some clinical trials, no reference given): ~1123 ng/mL
- Cmax at steady state [3, 9]: 1360 ng/mL
- Cmin at steady state [3, 9]: 1123 ng/mL
- interindividual variability in exposure (coefficient of variation) [3]: 32–64%
- increase in the AUC [3, 10]: 50–82%
- increase in the Cmax [3, 10]: up to 112%
- mean area under the curve (AUC) ([3]; oral 400 mg twice daily): 19000 ± 9100 ng·h/mL
- mean maximum plasma concentration (Cmax) ([3]; oral 400 mg twice daily): 2320 ± 1070 ng/mL
- plasma protein binding [4]: approximately 98%
- metabolizing enzymes [5]: metabolized primarily by cytochrome P450 (CYP) 3A4 isoform and with minor contributions from CYP2C8
- trough concentration (Cmin) associated with longer times to complete cytogenetic response and MMR and shorter time to progression [6]: < 469.4 ng/mL
- aqueous solubility versus pH [7]: decreases significantly with increased pH
- pKa [7]: 12.38
- solubility [7]: good solubility in DMSO, organic solvents (methanol and acetonitrile) and acidic aqueous solution

- stock solution stability, value for accuracy [1]: less than 1.5%
- working solution stability, value for accuracy [1]: lower than 15.1%
Compound: Cc1cc(/C=C/C#N)cc(C)c1Nc1ccnc(Nc2ccc(C#N)cc2)n1 [rilpivirine]
